In patent US10738051B2, “β-lactamase inhibitors” (priority 2016, dated 2020):

Experiments:
[1] = biological target: CTX-M-44 (Class C) β-lactamase (Escherichia coli, UniProt Q47066); experiment: In vitro enzymatic assay (Nitrocefin); assay type: biochemical
Protocol: (§1) 2) Prepare buffer solution A (1×PBS, pH 7.4, 0.1 mg/mL BSA) for enzymatic assay;
(§2) 3) The compound mother liquor was 4-fold serial diluted for 11 times with DMSO in a 96-well tip-bottom plate, which was used as a working solution. A 96-well flat bottom plate was used as a test plate, the corresponding reaction buffer was previously added to each well, followed by addition of a corresponding volume of the working solution (100 μM-0.095 nM and 0 nM). Wherein, EDTA-Na2 was used as a control for the NDM-1 test at a concentration of 20 mM;
(§3) 4) adding the corresponding β-lactamase, and the test plate was incubated at 37° C. for 5 minutes;
(§4) 5) Adding 5 μL Nitrocefin (the final reaction volume was 100 μL), the absorbance OD490 of the reaction solution in the plate was measured by a microplate reader and the result was recorded, the absorbance was measured every minute over 30 minutes;
(§5) 6) The microplate reader could give a curve of OD490 over time. The slope of the curve (Abs2−Abs1)/(T2−T1) was calculated by taking two data points Abs1 and Abs2 within the linear range of the curve.
(§6) 7) The relative inhibition rate was calculated as follows: Slope (EC) was calculated under the condition of absence of an inhibitor, and Slop(S) was calculated under the condition of an inhibitor at a certain concentration.
(§7) The relative inhibition rate and the corresponding concentration of the inhibitor were used to calculate the IC50 value of the inhibitor on β-lactamase. In this experiment, the IC50 was calculated using the formula of GraphPad Prism 5.0, log(inhibitor) vs. normalized response-Variable slope.

[2] = biological target: AmpC-EC (Class C) β-lactamase (UniProt P05364); experiment: In vitro enzymatic assay (Nitrocefin); assay type: biochemical; settings: Nitrocefin 0.1 mM, 1 × PBS pH 7.4, 0.1 mg/mL BSA, read-out: IC50, inhibitory activity on β-lactamase
Protocol: as §1, §2, §3, §4, §5, §6, §7

[3] = biological target: OXA-9 (Class D) β-lactamase (Klebsiella pneumoniae, UniProt P0A3M3); experiment: In vitro enzymatic assay (Nitrocefin); assay type: biochemical
Protocol: as §1, §2, §3, §4, §5, §6, §7

[4] = biological target: OXA-2 (Class D) β-lactamase (Escherichia coli, UniProt P0A1V9); experiment: In vitro enzymatic assay (Nitrocefin); assay type: biochemical
Protocol: as §1, §2, §3, §4, §5, §6, §7

[5] = tested on: K. pneumoniae ATCC BAA-1898 (KPC); experiment: In vitro synergistic inhibitory concentration (SIC) assay; assay type: cell-based; settings: Klebsiella pneumoniae, ATCCBAA1898, 37° C. 20 hours, read-out: minimum inhibitory concentration, used alone
Protocol: (§8) 2) 30 μL dimethyl sulfoxide was added to columns 2-12 of the 96-V well plate. 60 μL prepared ceftazidime was added to column 1. 30 μL ceftazidime was transferred from column 1 to column 2 and mixed with a pipette. The same operation was continued until column 11, and 30 μL of the mixture in column 11 was discarded. This was the compound mother plate.
(§9) Mix the liquid in the mother plate with a pipette.
(§10) 4) One day before the experiment, the bacterial glycerol stock which was stored in a −80° C. refrigerator was streaked on a trypticase soy agar plate (TSA), and the plate was incubated in a 37° C. incubator overnight. On the day of the experiment, the monoclonal bacterial was suspended in physiological saline and the turbidity of which was adjusted to 0.5 McFarland standard, corresponding to 1×10^8 CFU/ml. This suspension was diluted 100-fold to 1×10^6 CFU/mL with caton-adjusted Mueller-Hnton broth (CAMHB), which was used as an inoculation fluid.
(§11) 5) a 96-U plate was used as a test plate. Firstly, adding 98 μL CAMHB to each well of the test plate and transferring 2 μL solution in the mother plate to the test plate. 100 μL inoculation fluid was added to each well of the test plate.
(§12) 6) The test plate was incubated at 37° C. for 20 hours.
(§13) The above-mentioned method was also used to determine the antibacterial activity of the test compound or the antibiotic when used alone.

[6] = tested on: K. pneumoniae ATCC 51504 (TEM-10); experiment: as above; assay type: cell-based; settings: Klebsiella pneumoniae, ATCC51504, 37° C. 20 hours, read-out: minimum inhibitory concentration, used alone
Protocol: as §8, §9, §10, §11, §12, §13

[7] = tested on: K. pneumoniae ATCC-700603 (SHV-18); experiment: as above; assay type: cell-based; settings: Klebsiella pneumoniae, ATCC700603, 37° C. 20 hours, read-out: minimum inhibitory concentration, used alone
Protocol: as §8, §9, §10, §11, §12, §13

[8] = tested on: K. pneumoniae ATCC BAA-1899 (KPC); experiment: as above; assay type: cell-based; settings: Klebsiella pneumoniae, ATCCBAA1899, 37° C. 20 hours, read-out: minimum inhibitory concentration, used alone
Protocol: as §8, §9, §10, §11, §12, §13

[9] = tested on: E. cloacae ATCC BAA-1143 (AmpC); experiment: as above; assay type: cell-based; settings: Enterobacter cloacae, ATCCBAA1143, 37° C. 20 hours, read-out: minimum inhibitory concentration, used alone
Protocol: as §8, §9, §10, §11, §12, §13

[10] = tested on: K. pneumoniae ATCC BAA-1705 (KPC); experiment: as above; assay type: cell-based; settings: Klebsiella pneumoniae, ATCCBAA1705, 37° C. 20 hours, read-out: minimum inhibitory concentration, used alone
Protocol: as §8, §9, §10, §11, §12, §13

[11] = tested on: K. pneumoniae ATCC BAA-205 (TEM-1/SHV-1/SHV-12); experiment: as above; assay type: cell-based; settings: Klebsiella pneumoniae, ATCCBAA205, 37° C. 20 hours, read-out: minimum inhibitory concentration, used alone
Protocol: as §8, §9, §10, §11, §12, §13

[12] = tested on: K. pneumoniae ATCC BAA-1144 (AmpC); experiment: as above; assay type: cell-based; settings: Klebsiella pneumoniae, ATCCBAA1144, 37° C. 20 hours, read-out: minimum inhibitory concentration, used alone
Protocol: as §8, §9, §10, §11, §12, §13

[13] = tested on: K. pneumoniae ATCC 51503 (TEM-10/12); experiment: as above; assay type: cell-based; settings: Klebsiella pneumoniae, ATCC51503, 37° C. 20 hours, read-out: minimum inhibitory concentration, used alone
Protocol: as §8, §9, §10, §11, §12, §13

[14] = tested on: NDM-1 metalloenzyme-producing strains (8 strains), clinically isolated Klebsiella pneumoniae; experiment: SIC assay against Chinese clinical isolates (broth microdilution MIC); assay type: cell-based; settings: for MIC50 / MIC90: Klebsiella pneumoniae; for MIC50 / MIC90 / MIC range: NDM-1 metalloenzyme-producing K. pneumoniae clinical isolates (8 strains), enzyme inhibitor in combinations fixed at 4 μg/mL; for drug resistance rate / drug sensitive rate: NDM-1 metalloenzyme-producing strains (8 strains), CLSI criteria of the antibiotic, inhibitor fixed at 4 μg/mL
Text: (§14) The broth microdilution method was used to determine the minimum inhibitory concentration (MIC) of antibacterial agents (with and without BLI lead compound) against clinical isolates of carbapenemase-producing strains.
(§15) 1. Drug susceptibility test: according to the method of antimicrobial susceptibility test described in the 2016 edition of the US Clinical and Laboratory Standards Institute (CLSI) document, the MIC of commonly used antibacterial drugs against clinically isolated bacteria was determined by a broth microdilution method.
(§16) 2. Strains: 8 KPC-2 carbapenemase-producing strains, 8 NDM-1 metalloenzyme-producing strains, and 6 OXA-181 carbapenemase-producing strains. All strains were clinically isolated Klebsiella pneumoniae.
(§17) 4. Quality control strains: quality control strains of the drug susceptibility test include Escherichia coli ATCC 25922 and ATCC 35218.

[15] = tested on: KPC-2 carbapenemase-producing strains (8 strains), clinically isolated Klebsiella pneumoniae; experiment: as above; assay type: cell-based; settings: for drug resistance rate / drug sensitive rate: KPC-2 carbapenemase-producing strains (8 strains), CLSI criteria of the antibiotic, inhibitor fixed at 4 μg/mL
Text: as §14, §15, §16, §17

[16] = tested on: OXA-181 carbapenemase-producing strains (7 strains), clinically isolated Klebsiella pneumoniae; experiment: as above; assay type: cell-based; settings: for MIC50 / MIC90: Klebsiella pneumoniae; for drug resistance rate / drug sensitive rate: OXA-181 carbapenemase-producing strains (7 strains), CLSI criteria of the antibiotic, inhibitor fixed at 4 μg/mL
Text: as §14, §15
2. […] All strains were clinically isolated Klebsiella pneumoniae.
as §17

[17] = tested on: E. coli ATCC BAA-2523 (OXA-48); experiment: In vitro synergistic inhibitory concentration (SIC) assay; assay type: cell-based; settings: Escherichia coli, ATCCBAA2523, 37° C. 20 hours, read-out: minimum inhibitory concentration, used alone
Protocol: as §8, §9, §10, §11, §12, §13

[18] = tested on: K. pneumoniae ATCC BAA-2524 (OXA-48); experiment: as above; assay type: cell-based; settings: Klebsiella pneumoniae, ATCCBAA2524, 37° C. 20 hours, read-out: minimum inhibitory concentration, used alone
Protocol: as §8, §9, §10, §11, §12, §13

[19] = tested on: K. pneumoniae ATCC BAA-2470 (NDM-1); experiment: as above; assay type: cell-based; settings: Klebsiella pneumoniae, ATCCBAA2470, 37° C. 20 hours, read-out: minimum inhibitory concentration, used alone
Protocol: as §8, §9, §10, §11, §12, §13

[20] = tested on: K. pneumoniae ATCC BAA-2472 (NDM-1); experiment: as above; assay type: cell-based; settings: Klebsiella pneumoniae, ATCCBAA2472, 37° C. 20 hours, read-out: minimum inhibitory concentration, used alone
Protocol: as §8, §9, §10, §11, §12, §13

[21] = Klebsiella pneumoniae, KPC-2 carbapenemase-producing K. pneumoniae clinical isolates (8 strains), enzyme inhibitor in combinations fixed at 4 μg/mL
[22] = OXA-181 carbapenemase-producing K. pneumoniae clinical isolates (7 strains), enzyme inhibitor in combinations fixed at 4 μg/mL

Compound | MIC [5] [µg/mL] | MIC [6] [µg/mL] | MIC [7] [µg/mL] | MIC [8] [µg/mL] | MIC [9] [µg/mL] | MIC [10] [µg/mL] | MIC [11] [µg/mL] | MIC [12] [µg/mL] | MIC [13] [µg/mL] | MIC50 [14] [µg/mL] | MIC90 [14] [µg/mL] | MIC range [14] [µg/mL] | drug resistance rate [14] | drug sensitive rate [14] | drug resistance rate [15] | drug sensitive rate [15] | MIC50 [15, 21] [µg/mL] | MIC50 [16, 22] [µg/mL] | MIC90 [16, 22] [µg/mL] | drug resistance rate [16] | other results
NC(=O)[C@@H]1CC[C@@H]2CN1C(=O)N2OS(=O)(=O)O [Avibactam, avibactam] | – | – | – | – | – | – | – | – | – | – | – | – | – | – | – | – | – | – | – | – | IC50 [1]: 67 nM; IC50 [2]: 107 nM; IC50 [3]: 3130 nM; IC50 [4]: 1490 nM
CC(C)(O/N=C(\C(=O)N[C@@H]1C(=O)N2C(C(=O)[O-])=C(C[n+]3ccccc3)CS[C@H]12)c1csc(N)n1)C(=O)O [Ceftazidime, ceftazidime] | > 128 | > 128 | 64 | > 128 | > 128 | > 128 | 32 | > 128 | > 128 | > 128 | > 128 | >128 | 100 | 0 | 100 | 0 | > 128 | > 128 | > 128 | 100 | MIC range ([15]; KPC-2 carbapenemase-producing K. pneumoniae clinical isolates (8 strains), enzyme inhibitor in combinations fixed at 4 μg/mL): 64 to 128 µg/mL; MIC90 [15, 21]: > 128 µg/mL; drug sensitive rate [16]: 0
C[C@@H](O)[C@H]1C(=O)N2C(C(=O)O)=C(S[C@@H]3CN[C@H](C(=O)Nc4cccc(C(=O)O)c4)C3)[C@H](C)[C@H]12 [Ertapenem, ertapenem] | – | – | – | – | – | – | – | – | – | – | – | – | – | – | – | – | – | – | – | – | MIC [17]: 8 µg/mL; MIC [18]: 4 µg/mL; MIC [19]: > 128 µg/mL; MIC [20]: > 128 µg/mL
NCCONC(=O)[C@@H]1CC[C@@H]2CN1C(=O)N2OS(=O)(=O)O [OP-0595] | > 128 | > 128 | > 128 | > 128 | 4 | > 128 | > 128 | > 128 | > 128 | – | – | – | – | – | – | – | – | – | – | – | MIC [17]: 16 µg/mL; MIC [18]: > 128 µg/mL; MIC [19]: > 128 µg/mL; MIC [20]: > 128 µg/mL
C[C@H]1[C@H](NC(=O)/C(=N\OC(C)(C)C(=O)O)c2csc(N)n2)C(=O)N1S(=O)(=O)O [aztreonam] | – | – | – | – | – | – | – | – | – | 64 | – | – | – | – | – | – | – | – | – | – | –
C[C@@H](O)[C@H]1C(=O)N2C(C(=O)O)=C(S[C@@H]3CN[C@H](C(=O)N(C)C)C3)[C@H](C)[C@H]12 [meropenem] | – | – | – | – | – | – | – | – | – | 4 | 32 | 2 to 32 | 75 | 0 | 100 | 0 | 64 | 0.5 | 2 | 0 | MIC range [16, 22]: 0.5 to 2 µg/mL; drug sensitive rate [16]: 85.7
